Experimental data from BindingDB's records for doi:10.7270/Q2RX99Q9 (The Scripps Research Institute Molecular Screening Center, 2013).

Target: Albumin (Bos taurus, UniProt P02769)
Sequence (P02769 whole entry): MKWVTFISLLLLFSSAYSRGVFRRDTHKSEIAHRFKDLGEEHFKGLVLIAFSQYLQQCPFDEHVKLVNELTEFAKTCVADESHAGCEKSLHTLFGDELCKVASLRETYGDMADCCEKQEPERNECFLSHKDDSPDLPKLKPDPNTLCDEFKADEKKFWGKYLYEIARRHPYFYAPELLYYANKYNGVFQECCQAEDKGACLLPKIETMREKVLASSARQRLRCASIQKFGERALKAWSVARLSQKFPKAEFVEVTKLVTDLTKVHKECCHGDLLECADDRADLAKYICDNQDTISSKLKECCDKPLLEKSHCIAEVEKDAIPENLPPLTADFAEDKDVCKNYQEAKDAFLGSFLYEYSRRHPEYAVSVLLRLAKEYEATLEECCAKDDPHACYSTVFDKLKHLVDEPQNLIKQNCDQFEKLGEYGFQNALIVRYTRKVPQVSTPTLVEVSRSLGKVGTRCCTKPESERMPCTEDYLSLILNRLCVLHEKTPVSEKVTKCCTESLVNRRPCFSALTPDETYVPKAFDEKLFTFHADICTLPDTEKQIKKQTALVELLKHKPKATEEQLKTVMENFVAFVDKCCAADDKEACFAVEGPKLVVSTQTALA

IC50 [µM] | SMILES
> 94.1 | O=C(N/N=C/C1C=C([N+](=O)[O-])C=CC1=O)/C(=C\c1cccs1)NC(=O)c1ccccc1 (stereo not drawn) [MLS000332530]
> 94.1 | Cc1cc(C(=O)N/N=C/C2C=C(Br)C=C([N+](=O)[O-])C2=O)c2ccccc2n1 (stereo not drawn) [MLS000585468]
> 94.1 | Cc1cc(=O)oc2cc(OCC(=O)N/N=C/C3C=C([N+](=O)[O-])C=CC3=O)ccc12 (stereo not drawn) [MLS000588734]
> 94.1 | COC1=CC(=O)C(/C=N/NC(=O)c2ccncc2)C(OC)=C1[N+](=O)[O-] (stereo not drawn) [MLS000673335]
> 94.1 | Cc1cc2cc(CNC(=O)c3ccc(C)c([N+](=O)[O-])c3)ccc2[nH]1 [MLS000724615]
> 94.1 | O=C(CSc1nc2ccccc2s1)N/N=C/C1C=C([N+](=O)[O-])C=CC1=O (stereo not drawn) [MLS000777065]
> 94.1 | O=C1C=CC([N+](=O)[O-])=CC1C=NNC(=S)Nc1ccc(Cl)cc1Cl (stereo not drawn) [MLS000777079]
> 94.1 | CN1C(=O)C(C=NNC(=O)c2cc3ccccc3cc2O)c2ccccc21 (stereo not drawn) [MLS000912237]
> 94.1 | O=C(N/N=C/C1C=C(Cl)C=C([N+](=O)[O-])C1=O)c1cccc(S(=O)(=O)N2CCOCC2)c1 (stereo not drawn) [MLS002155639]
> 94.1 | O=C(N/N=C/C1C=C([N+](=O)[O-])C=C([N+](=O)[O-])C1=O)/C(=C\c1cccs1)NC(=O)c1ccccc1 (stereo not drawn) [SMR000207704]
> 94.1 | O=C1C([N+](=O)[O-])=CC=CC1/C=N/n1cnc2scc(-c3ccc(Cl)cc3)c2c1=O (stereo not drawn) [SMR000314525]
> 94.1 | Cc1cc(C(=O)NN=CC2C=C(Cl)C=C([N+](=O)[O-])C2=O)[nH]n1 (stereo not drawn) [SMR000414694]
> 94.1 | Cc1c(NC(=S)NN=CC2C=C([N+](=O)[O-])C=CC2=O)c(=O)n(-c2ccccc2)n1C (stereo not drawn) [SMR000415003]
> 94.1 | COc1ccc(C(=O)CC=NNC(=O)c2ccc(Cl)cc2)cc1 [SMR000499516]
> 94.2 | O=Nc1[nH]c(=O)c(CC(=O)c2ccccc2)nc1NO [SMR000539633]
> 94.1 | O=C(O)c1ccccc1NS(=O)(=O)c1ccc(N=NCc2ccc(O)c(O)c2)c([N+](=O)[O-])c1 [SMR001238114]

Further lines, the compound ahead of its results:

SMILES | IC50 [µM]
CC1=CC(/C=N/n2c(COc3ccccc3C)nc3ccccc3c2=O)C(=O)C([N+](=O)[O-])=C1 (stereo not drawn) | > 94.1
COc1ccc(CC(=O)N/N=C/C2C=C([N+](=O)[O-])C=C(Br)C2=O)cc1 (stereo not drawn) | > 94.1
CC1=CC(/C=N/n2c(CO[N-][C+](C)c3ccccc3)nc3ccccc3c2=O)C(=O)C([N+](=O)[O-])=C1 (stereo not drawn) | > 94.1
O=C(N/N=C/C1C=CC=C([N+](=O)[O-])C1=O)c1cccs1 (stereo not drawn) | > 94.1
COC1=CC([N+](=O)[O-])=CC(/C=N/NC(=O)c2cc(C)nc3ccccc23)C1=O (stereo not drawn) | > 94.1
O=C(N/N=C/C1C=C([N+](=O)[O-])C=CC1=O)c1cccc(N2CCCC2=O)c1 (stereo not drawn) | > 94.1
CCOC(=O)C1C(CC)=Nc2ccccc2N=C1NC(=O)Nc1ccc(Cl)c(Cl)c1 (stereo not drawn) | > 94.1
O=C(NN=CC1=CC(=O)C(=O)CC1)NN=CC1=CC(=O)C(=O)CC1 [1,3-bis[[(Z)-(3-hydroxy-4-oxocyclohexa-2,5-dien-1-ylidene)methyl]amino]urea] | > 94.1
O=C1C([N+](=O)[O-])=CC(Cl)=CC1C=NNC(=S)Nc1ccc(S(=O)(=O)N2CCOCC2)cc1 (stereo not drawn) [1-[[(E)-(3-chloro-5-nitro-6-oxo-1-cyclohexa-2,4-dienylidene)methyl]amino]-3-[4-(4-morpholinylsulfonyl)phenyl]thiourea] | > 94.1
Nc1nnc(CC(=O)N/N=C/C2C=C([N+](=O)[O-])C=CC2=O)s1 (stereo not drawn) [2-(5-amino-1,3,4-thiadiazol-2-yl)-N'-[(E)-(3-nitro-6-oxo-1-cyclohexa-2,4-dienylidene)methyl]acetohydrazide] | > 94.1
O=C(CNC(=O)c1ccccc1Br)N/N=C/C1C=C([N+](=O)[O-])C=C(Br)C1=O (stereo not drawn) [2-bromanyl-N-[2-[2-[(E)-(5-bromanyl-3-nitro-6-oxidanylidene-cyclohexa-2,4-dien-1-ylidene)methyl]hydrazinyl]-2-oxidanylidene-ethyl]benzamide] | > 94.1
O=C1C=CC([N+](=O)[O-])=CC1/C=N/n1c(COc2ccccc2)nc2ccccc2c1=O (stereo not drawn) [3-[[(E)-(3-nitro-6-oxocyclohexa-2,4-dien-1-ylidene)methyl]amino]-2-(phenoxymethyl)quinazolin-4-one] | > 94.1
O=C1CC(=O)c2c(O)cc(O)c(O)c2C1=O [4,5,7,8-tetrahydroxy-1,2-naphthoquinone] | > 94.1
Oc1c(Br)cc(CC=Nc2cc(O)c3cccnc3c2O)cc1Br [7-[2-(3,5-dibromo-4-hydroxyphenyl)ethylamino]quinoline-5,8-dione] | > 94.2
Oc1ccc(CN=Nc2ncnc3c2ncn3Cc2ccccc2)cc1O [(4Z)-2-oxidanyl-4-[[2-[9-(phenylmethyl)purin-6-yl]hydrazinyl]methylidene]cyclohexa-2,5-dien-1-one] | > 94.1
O=[N+]([O-])c1cc(Br)c(O)c(CN=Nc2nnnn2-c2cccc3ccccc23)c1 [(6E)-2-bromo-6-[[2-(1-naphthalen-1-yltetrazol-5-yl)hydrazinyl]methylidene]-4-nitrocyclohexa-2,4-dien-1-one] | > 94.1
CCc1n[nH]c(=S)n1N=CC1C=C(OC)C=C([N+](=O)[O-])C1=O (stereo not drawn) [(6E)-6-[[(3-ethyl-5-sulfanylidene-1H-1,2,4-triazol-4-yl)amino]methylidene]-4-methoxy-2-nitro-1-cyclohexa-2,4-dienone] | > 94.1
C=CCN1C(=O)/C(=N\NC(=O)CNC(=O)/C=C/c2ccco2)c2ccccc21 [(E)-N-[1-Allyl-2-oxo-1,2-dihydro-indol-(3Z)-ylidene-hydrazinocarbonylmethyl]-3-furan-2-yl-acrylamide] | > 94.1
CC1=CC([N+](=O)[O-])=CC(/C=N/n2c(C)nc3ccccc3c2=O)C1=O (stereo not drawn) [MLS000778735] | > 94
O=C(N/N=C/C1C=C(Cl)C=C([N+](=O)[O-])C1=O)c1ccc2c(c1)OCO2 (stereo not drawn) [N'-[(E)-(3-chloranyl-5-nitro-6-oxidanylidene-cyclohexa-2,4-dien-1-ylidene)methyl]-1,3-benzodioxole-5-carbohydrazide] | > 94.1
Cc1cc(C(=O)N/N=C/C2C=C(Cl)C=C([N+](=O)[O-])C2=O)c2ccccc2n1 (stereo not drawn) [N'-[(E)-(3-chloranyl-5-nitro-6-oxidanylidene-cyclohexa-2,4-dien-1-ylidene)methyl]-2-methyl-quinoline-4-carbohydrazide] | > 94.1
CC1=CC([N+](=O)[O-])=CC(/C=N/NC(=O)C2COc3ccccc3O2)C1=O (stereo not drawn) [N'-[(E)-(5-methyl-3-nitro-6-oxocyclohexa-2,4-dien-1-ylidene)methyl]-2,3-dihydro-1,4-benzodioxine-3-carbohydrazide] | > 94.2
Cc1ccccc1C(=O)Nc1cccc(C(=O)N/N=C/C2C=C(Cl)C=C([N+](=O)[O-])C2=O)c1 (stereo not drawn) [N-(3-{[(2E)-2-(5-chloro-2-hydroxy-3-nitrobenzylidene)hydrazino]carbonyl}phenyl)-2-methylbenzamide] | > 94.1
Cc1ccc(C(=O)Nc2nc(C(C)(C)C)cs2)s1 [N-(4-tert-butyl-2-thiazolyl)-5-methyl-2-thiophenecarboxamide] | > 94.1
O=C(NC(C(=O)NN=CC1C=C([N+](=O)[O-])C=CC1=O)c1n[nH]c(=O)c2ccccc12)c1ccccc1 (stereo not drawn) [N-[2-[2-[(E)-(3-nitro-6-oxidanylidene-cyclohexa-2,4-dien-1-ylidene)methyl]hydrazinyl]-2-oxidanylidene-1-(4-oxidanylidene-3H-phthalazin-1-yl)ethyl]benzamide] | > 94.1
CC(NNC(=O)c1ccc(-c2ccccc2)cc1)=C1C(=O)c2ccccc2C1=O [N-[(E)-1-(1,3-dioxoinden-2-yl)ethylideneamino]-4-phenylbenzamide] | > 94.1
CCOC(=O)c1c(C)[nH]c(C(=O)N/N=C/C2C=C([N+](=O)[O-])C=CC2=O)c1C (stereo not drawn) [ethyl 2,4-dimethyl-5-[[[(E)-(3-nitro-6-oxocyclohexa-2,4-dien-1-ylidene)methyl]amino]carbamoyl]-1H-pyrrole-3-carboxylate] | > 94.1
